Results taken from publication PMC7912516, “New Antimicrobials Based on the Adarotene Scaffold with Activity against Multi-Drug Resistant Staphylococcus aureus and Vancomycin-Resistant Enterococcus” (Antibiotics, 2021).
Where “and” joins values, the source holds several entries; their conditions need not be identical. Identical values can stand only once. Like-named read-outs stand apart in the source and are kept apart here.

Legend:
[1] = tested on: S. aureus ATCC 25923 (reference strain); test: MIC/MBC by broth micro-dilution (CLSI); assay type: cell-based; details: Staphylococcus aureus; for MBC: ATCC25923, in square brackets, modal value; for MIC: ATCC25923, modal value
Description: (§1) To expand the previously obtained results compounds 16 and 17 were also tested on wider a selection of strains: two other MDR S. aureus and E. faecalis clinical isolates, the S. aureus ATCC 25923 and the E. faecalis ATCC 51299 reference strains. Compound 2, which was endowed with low antimicrobial activity, was tested as well, to confirm its low efficacy. Adarotene was used as control compound (Table 2).
(§2) MICs and MBCs were determined according to CLSI (Clinical and Laboratory Standards Institute) guidelines, in triplicate. Results are shown as modal values of the three replicates. According to MIC and MBC data, the killing rate was calculated as the ratio between MBC and MIC on which basis it is possible to define the compounds tested as bactericides (killing rate = 1–4), or bacteriostatic (killing rate > 4).
(§3) Preparation of the solution containing molecules: for each molecule to be tested, solutions were made as DMSO stock, with a concentration of 2.560 mg/mL. Scalar dilutions were than prepared directly on plates by using Mueller Hinton Broth (MHB) as a growth medium (range 0.5–256 µg/mL).
(§4) Bacterial suspension preparation: cryostrains preserved at −80 °C were recovered by incubation in growth medium (Brain Heart Infusion Broth, BHI) for 24–48 h at 35 ± 2 °C followed by passages in agar growth medium (Columbia Blood Agar). Colonies with less than 30 h were suspended in MHB with the purpose to prepare a bacterial suspension with a turbidity of 0.5 MF, containing approximately 1.5 × 10^8 cfu/mL. This suspension was than diluted in MHB until reaching a final concentration of 5 × 10^4 CFU/well. Simultaneously, check in broth-microdilution only with solvent (in order to exclude that the effect of growth inhibition might be due to the drug solution solvent), positive growth control in absence of DMSO and drug, and negative purity control only with injection broth were performed.
S. aureus ATCC 25923 (reference strain): mecA negative; multi-susceptible.

[2] = tested on: E. faecalis strain 1 (MDR clinical isolate); test: MIC/MBC by broth micro-dilution (CLSI); assay type: cell-based, Enterococcus faecalis; details: for MBC: in square brackets
Description: (§5) The compounds were initially tested with a methicillin-resistant S. aureus and an E. faecalis clinical isolates (details in the experimental section), two MDR strains according to definition by Magiorakos et al.. The activity of studied compounds was assessed by broth micro-dilution method. Minimal Inhibitory Concentration (MIC), and Minimal Bactericidal Concentration (MBC) were determined and possible bacteriostatic or bactericidal activity was also investigated.
as §2, §3, §4
E. faecalis strain 1 (collection, MDR) vanA/B negative; aminoglycosides high-level resistant to aminoglycosides (gentamicin and streptomycin) and ampicillin.

tumor cell line IGROV-1 = details: ± SD, read-out: IC50 (concentration required for 50% inhibition of cell growth), cited from earlier work
[3] = tested on: S. aureus strain 2 (MDR clinical isolate); test: MIC/MBC by broth micro-dilution (CLSI); assay type: cell-based; details: Staphylococcus aureus, modal value; for MBC: in square brackets
Description: as §1, §2, §3, §4
S. aureus strain 2 (collection, MDR): mecA negative; β-lactamase positive, resistant to erythromycin, gentamicin, clindamycin and fusidic acid.

[4] = tested on: E. faecalis strain 2 (MDR clinical isolate); test: MIC/MBC by broth micro-dilution (CLSI); assay type: cell-based; details: Enterococcus faecalis, modal value; for MBC: in square brackets
Description: as §1, §2, §3, §4
E. faecalis strain 2 (collection, MDR) vanA/B negative; aminoglycosides high-level resistant to aminoglycosides (gentamicin and strseptomycin) and ampicillin.

[5] = tested on: S. aureus strain 1 (MDR clinical isolate, MRSA, mecA positive); test: MIC/MBC by broth micro-dilution (CLSI); assay type: cell-based, Staphylococcus aureus; details: for MIC / MBC: S. aureus Strain 1; for MBC: in square brackets; for bactericidal or bacteriostatic activity (killing rate = MBC/MIC): S. aureus and E. faecalis, bactericides killing rate = 1–4, bacteriostatic > 4
Description: as §5, §2, §3, §4
S. aureus strain 1 (collection, MDR): mecA positive; MRSA, β-lactamase positive, resistant to ciprofloxacin, gentamicin and erythromycin.

[6] = tested on: E. faecalis ATCC 51299 (reference strain, vanB positive); test: MIC/MBC by broth micro-dilution (CLSI); assay type: cell-based; details: Enterococcus faecalis; for MBC: ATCC51299, in square brackets, modal value; for MIC: ATCC51299, modal value
Description: as §1, §2, §3, §4
E. faecalis ATCC 51299 (reference strain): vanB positive.

[7] = tested on: tumor cell line H-460 NCI; set-up: method as in PMID 32920362; details: ± SD, ref [17], read-out: IC50 (concentration required for 50% inhibition of cell growth); cited from earlier work
[8] = Enterococcus faecalis, modal value
[9] = Enterococcus faecalis, modal value of three replicates, read-out: MIC
[10] = Enterococcus faecalis, modal value, read-out: MIC
[11] = Staphylococcus aureus, MRSA, modal value of three replicates, read-out: MIC
[12] = Staphylococcus aureus, MRSA, modal value, read-out: MIC
[13] = Staphylococcus aureus, MRSA, modal value
[14] = modal value of three replicates

MIC [2, 9] | MIC [2, 10] | MIC [5, 11] | MIC [5, 12] | MIC [2, 14] | MIC [5, 14] | Compound | MBC [2, 8] | IC50 (tumor cell line IGROV-1; ref [13]) | MBC [5, 13] | other results
1 µg/mL | 3 µM | 8 µg/mL | 21 µM |  |  | O=C(O)/C=C/c1ccc(-c2ccc(O)c(C34CC5CC(CC(C5)C3)C4)c2)cc1 [Adarotene, adarotene] | 32 µg/mL and 85 µM | 0.23 ± 0.08 µM | 16 µg/mL and 42 µM | MBC [1]: 16 µg/mL and 42 µM; MIC [1]: 8 µg/mL and 21 µM; MBC [3]: 8 µg/mL and 21 µM; MIC [3]: 4 µg/mL and 10 µM; MBC [4]: 32 µg/mL and 84 µM; MIC [4]: 4 µg/mL and 10 µM; MBC [6]: 32 µg/mL and 84 µM; MIC [6]: 2 µg/mL and 5 µM
> 256 µg/mL | > 864 µM | 64 µg/mL | 216 µM |  |  | CC(C)(C)c1cc(-c2ccc(/C=C/C(=O)O)cc2)ccc1O [Compound 1] |  | 30 µM |  | 
≥ 32 µg/mL | 90 µM |  | 361 µM | 32 µg/mL | >= 32 µg/mL and 128 [128] µg/mL | N#C/C=C/c1ccc(-c2ccc(O)c(C34CC5CC(CC(C5)C3)C4)c2)cc1 [Compound 4] | 128 µg/mL and 360 µM | 8.3 ± 1.4 µM | 128 µg/mL and 361 µM | 
 | > 657 µM | ≥ 32 µg/mL | 164 µM | >= 32 µg/mL and >256 µg/mL | 64 µg/mL | O=C(/C=C/c1ccc(-c2ccc(O)c(C34CC5CC(CC(C5)C3)C4)c2)cc1)NO [Compound 5] |  |  |  | IC50 (tumor cell line IGROV-1; ref [15]): 1.1 ± 0.6 µM
 | > 550 µM |  | > 549 µM | >= 32 µg/mL and >256 µg/mL | >= 32 µg/mL and >256 µg/mL | O=C(/C=C/c1ccc(-c2ccc(O)c(C34CC5CC(CC(C5)C3)C4)c2)cc1)Nc1ccc(O)cc1 [Compound 6] |  | 6.6 ± 0.5 µM |  | 
 | 10 µM | 2 to 4 µg/mL | 10 µM | 1 to 4 µg/mL and 4 µg/mL | 4 µg/mL | O=C(O)/C(F)=C\c1ccc(-c2ccc(O)c(C34CC5CC(CC(C5)C3)C4)c2)cc1 [Compound 7] | 16 µg/mL and 40 µM | > 3 µM | 16 µg/mL and 40 µM | 
1 to 4 µg/mL | 3 µM | 2 to 4 µg/mL | 5 µM | 1 µg/mL | 2 µg/mL | C/C(=C\c1ccc(-c2ccc(O)c(C34CC5CC(CC(C5)C3)C4)c2)cc1)C(=O)O [Compound 8] | 8 µg/mL and 21 µM | 7.19 ± 1.27 µM | 8 µg/mL and 20 µM | 
16 µg/mL | 42 µM | 16 µg/mL | 42 µM | 16 µg/mL | 16 [16] µg/mL | O=C(O)CCc1ccc(-c2ccc(O)c(C34CC5CC(CC(C5)C3)C4)c2)cc1 [Compound 10] | 32 µg/mL and 85 µM | 48.4 ± 0.88 µM | 16 µg/mL and 42 µM | 
8 µg/mL | 20 µM | 16 µg/mL | 40 µM |  |  | COc1cc(-c2ccc(/C=C/C(=O)O)cc2)cc(C23CC4CC(CC(C4)C2)C3)c1O [Compound 11] |  |  | 32 µg/mL and 80 µM | 
2 µg/mL | 5 µM | 4 µg/mL | 9 µM |  |  | O=C(O)/C=C/c1ccc(-c2cc3c(c(C45CC6CC(CC(C6)C4)C5)c2)OCCO3)cc1 [Compound 12] |  |  |  | IC50 (tumor cell line IGROV-1; ref [14]): 0.23 ± 0.07 µM
4 µg/mL | 9 µM | 8 µg/mL | 18 µM |  |  | CC(=O)NCc1cc(-c2ccc(/C=C/C(=O)O)cc2)cc(C23CC4CC(CC(C4)C2)C3)c1O [Compound 13] | 16 µg/mL and 36 µM |  | 16 µg/mL and 36 µM | IC50 (tumor cell line IGROV-1; ref [14]): 1.24 ± 0.07 µM
64 µg/mL | 159 µM | 64 µg/mL | 159 µM |  |  | O=Cc1cc(-c2ccc(/C=C/C(=O)O)cc2)cc(C23CC4CC(CC(C4)C2)C3)c1O [Compound 15] |  |  |  | IC50 (tumor cell line IGROV-1; ref [14]): 1.64 ± 0.03 µM
2 to 8 µg/mL | 4 µM | 4 µg/mL | 8 µM | 2 µg/mL | 4 [4] µg/mL | CC(C)(C)ON=Cc1cc(/C=C/C(=O)O)ccc1-c1ccc(O)c(C23CC4CC(CC(C4)C2)C3)c1 [Compound 16] | 4 µg/mL and 8 µM |  | 4 µg/mL and 8 µM | MBC [1]: 4 µg/mL and 8 µM; MIC [1]: 2 µg/mL and 4 µM; IC50 [7]: > 10 µM; MBC [3]: 2 µg/mL and 4 µM; MIC [3]: 2 µg/mL and 4 µM; MBC [4]: 8 µg/mL and 16 µM; MIC [4]: 2 µg/mL and 4 µM; bactericidal or bacteriostatic activity (killing rate = MBC/MIC) [5]: bactericidal effect; MBC [6]: 8 µg/mL and 16 µM; MIC [6]: 2 µg/mL and 4 µM
 | 19 µM | 4 µg/mL | 9 µM | 2 to 8 µg/mL and 8 µg/mL | 4 [4] µg/mL | CON=Cc1cc(/C=C/C(=O)O)ccc1-c1ccc(O)c(C23CC4CC(CC(C4)C2)C3)c1 [Compound 17] | 16 µg/mL and 38 µM |  | 4 µg/mL and 9 µM | MBC [1]: 4 µg/mL and 10 µM; MIC [1]: 2 µg/mL and 5 µM; IC50 [7]: > 10 µM; MBC [3]: 32 µg/mL and 74 µM; MIC [3]: 4 µg/mL and 10 µM; MBC [4]: 16 µg/mL and 36 µM; MIC [4]: 8 µg/mL and 18 µM; bactericidal or bacteriostatic activity (killing rate = MBC/MIC) [5]: bactericidal effect; MBC [6]: 32 µg/mL and 74 µM; MIC [6]: 8 µg/mL and 18 µM
 | 269 µM |  | 269 µM | 32 to 128 µg/mL and 128 µg/mL | 32 to 128 µg/mL and 128 µg/mL | O=C(O)/C=C/c1ccc(-c2ccc(O)c(C34CC5CC(CC(C5)C3)C4)c2)c(C=NOCC(=O)O)c1 [Compound 18] |  |  |  | IC50 [7]: > 10 µM
32 to 128 µg/mL | 72 µM | 32 to 128 µg/mL | 72 µM | 32 µg/mL | 32 µg/mL | N=C(N)NCc1cc(/C=C/C(=O)O)ccc1-c1ccc(O)c(C23CC4CC(CC(C4)C2)C3)c1 [Compound 19] | 64 µg/mL and 144 µM |  | 64 µg/mL and 144 µM | IC50 [7]: > 10 µM
8 µg/mL | 20 µM | 2 µg/mL | 5 µM |  |  | O=Cc1cc(/C=C/C(=O)O)ccc1-c1ccc(O)c(C23CC4CC(CC(C4)C2)C3)c1 [Compound 20] |  |  | 32 µg/mL and 80 µM | IC50 [7]: 3.2 ± 0.2 µM

Compound | MIC [2, 9] | MIC [2, 10] | MIC [5, 11] | MIC [5, 12] | MIC [2, 14] | MIC [5, 14] | MBC [2, 8] | IC50 (tumor cell line IGROV-1; ref [13]) | MBC [5, 13] | other results
O=C(O)C=Cc1ccc(-c2ccc(OCCCCO)c(C34CC5CC(CC(C5)C3)C4)c2)cc1 [Compound 2, 3-[3′-adamantan-1-yl-4′-(hydroxybutoxy)-biphenyl-4-yl]-acrylic acid] | > 256 µg/mL | 287 µM | > 256 µg/mL | 573 µM | 128 µg/mL | 256 µg/mL |  |  |  | MIC [1]: 256 µg/mL and 572 µM; MIC [3]: 256 µg/mL and 572 µM; MIC [4]: 128 µg/mL and 286 µM; MIC [6]: 64 µg/mL and 143 µM
